Results: patent publication US20010016568A1, “NOVEL METAL COMPLEXES” (priority 1997, published 2001)
Blank lines part the entries; values can stand above or below the molecule they belong to.

Columns and labels:
G-CSF receptor = molecular target: T1, G-CSF receptor (Mus musculus, UniProt P40223); test: Luciferase assay in the presence of EDTA (NFS60 cells); type: cell-based, murine
T1 construct: they express endogenous G-CSF receptors; endogenous in cells; host or cells: NFS60 murine myeloid cells carrying a G-CSF-responsive luciferase reporter
T1 sequence (P40223 26-837): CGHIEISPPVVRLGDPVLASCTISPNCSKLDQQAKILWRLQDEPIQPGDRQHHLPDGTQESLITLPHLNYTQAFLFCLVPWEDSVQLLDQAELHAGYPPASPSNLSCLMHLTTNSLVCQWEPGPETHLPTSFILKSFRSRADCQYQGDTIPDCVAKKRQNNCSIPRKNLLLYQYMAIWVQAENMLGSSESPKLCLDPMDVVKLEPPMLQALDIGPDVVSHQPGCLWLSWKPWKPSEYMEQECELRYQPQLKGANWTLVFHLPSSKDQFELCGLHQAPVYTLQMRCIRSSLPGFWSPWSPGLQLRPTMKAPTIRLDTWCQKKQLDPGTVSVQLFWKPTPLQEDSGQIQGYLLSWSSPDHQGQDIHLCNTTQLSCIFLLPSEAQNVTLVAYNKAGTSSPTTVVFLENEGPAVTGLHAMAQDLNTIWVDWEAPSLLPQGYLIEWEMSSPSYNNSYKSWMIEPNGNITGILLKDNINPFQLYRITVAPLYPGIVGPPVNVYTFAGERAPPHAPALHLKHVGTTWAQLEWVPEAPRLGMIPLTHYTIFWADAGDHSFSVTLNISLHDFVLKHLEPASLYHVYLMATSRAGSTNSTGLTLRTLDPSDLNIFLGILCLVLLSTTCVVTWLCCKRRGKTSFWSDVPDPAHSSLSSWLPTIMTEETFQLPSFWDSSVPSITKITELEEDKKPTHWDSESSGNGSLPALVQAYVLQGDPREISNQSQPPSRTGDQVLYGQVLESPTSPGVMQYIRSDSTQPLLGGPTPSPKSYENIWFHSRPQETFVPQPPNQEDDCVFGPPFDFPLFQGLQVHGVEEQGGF
Protocol: FIG. 3 is an analysis of the effect of ethylenediaminetetraacetic acid (as used herein—EDTA) on the activity of Compound 1a (from Example 1) in NFS60 cells. Shown are luciferase response curves of Compound 1a at the indicated concentrations and in the presence of various concentrations of EDTA. […] The media in this assay contained a small amount (1-5 μM) of zinc(II).
FIGS. 7 and 8 show an analysis of the effect of metal chlorides on the EDTA depleted activity of Compound 1a on NFS60 cells. Shown are luciferase response curves as effected by the indicated metal chlorides. […] None of the other metals tested could overcome the inhibitory effect of EDTA.
In order to determine the requisiteness of zinc chelation of small organic molecules to agonist activity at dimeric cell-surface receptors, the above luciferase assay was performed on the G-CSF receptor in the presence of EDTA. EDTA is a strong metal chelator and had as its only effect, the removal of zinc from the ligand-receptor interaction.

G-CSF/Fc fusion protein = molecular target: T2, G-CSF/Fc fusion protein (Mus musculus, UniProt P40223); test: Isothermal titration microcalorimetry; type: binding; details: only in the presence of zinc
T2 construct: which contained the extracellular domain of the receptor presented in a dimeric form due to the Fc component
T2 sequence (P40223 26-626 limits assumed): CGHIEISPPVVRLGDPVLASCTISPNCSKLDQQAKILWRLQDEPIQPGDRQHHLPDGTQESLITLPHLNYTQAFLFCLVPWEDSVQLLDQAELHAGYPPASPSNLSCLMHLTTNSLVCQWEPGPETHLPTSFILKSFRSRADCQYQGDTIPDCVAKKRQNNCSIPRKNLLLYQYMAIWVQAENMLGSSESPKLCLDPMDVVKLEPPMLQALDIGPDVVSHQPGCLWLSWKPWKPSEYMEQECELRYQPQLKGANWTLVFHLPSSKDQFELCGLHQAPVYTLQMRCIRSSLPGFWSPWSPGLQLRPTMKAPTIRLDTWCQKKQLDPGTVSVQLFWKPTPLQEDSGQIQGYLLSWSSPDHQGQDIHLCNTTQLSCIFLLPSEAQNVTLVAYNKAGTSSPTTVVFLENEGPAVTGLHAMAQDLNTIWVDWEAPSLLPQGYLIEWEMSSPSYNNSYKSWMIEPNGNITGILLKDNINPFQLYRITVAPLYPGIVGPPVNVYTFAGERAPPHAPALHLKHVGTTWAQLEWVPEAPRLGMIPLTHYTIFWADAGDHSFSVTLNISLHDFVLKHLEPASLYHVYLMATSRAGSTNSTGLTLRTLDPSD
Protocol: Zinc-mediated affinity of compounds from this invention for dimeric cell-surface receptors (specifically the G-CSF receptor) was measured by isothermal titration microcalorimetry experiments. Titration microcalorimetry detects binding as heat originating from the intrinsic bond forming enthalpy change. In this assay, the compounds were titrated first against zinc(II) alone. In a separate experiment, the compounds were then assayed in the presence of zinc and a dimeric cell-surface receptor/Fc fusion protein (a G-CSF/Fc fusion protein), which contained the extracellular domain of the receptor presented in a dimeric form due to the Fc component.

effect of EDTA on luciferase activity (G-CSF receptor; EDTA at 1.2 millimolar, media contained 1-5 μM zinc(II)): antagonized
agonist activity in the presence of EDTA (G-CSF receptor; FIG. 3): abrogated
affinity for the fusion protein construct (G-CSF/Fc fusion protein): high, submicromolar affinity
Molecule: c1ccc(C23NC(=Nc4nc5ccccc5[nH]4)NC2(c2ccccn2)NC(=Nc2nc4ccccc4[nH]2)N3)nc1 (stereo not drawn) [Compound 1a, 2,5-Bis[2-benzimidazolylimino]-3a,6a-bis(2-pyridyl)-1,2,3,3a,4,5,6,6a-octahydroimidazo[4,5-d]imidazole]
effect of metal chlorides on the EDTA depleted luciferase activity (G-CSF receptor; 50 micromolar EDTA, metal chlorides (zinc, manganese, iron, copper, cobalt)): Only zinc (II) at concentrations 0.5-10 micromolar can overcome the inhibition

affinity for the fusion protein construct (G-CSF/Fc fusion protein): high, submicromolar affinity
Molecule: Cc1ccc2nc(N=C3NC4(c5ccccn5)NC(=Nc5nc6ccccc6[nH]5)NC4(c4ccccn4)N3)[nH]c2c1.O=C(O)C(F)(F)F.O=C(O)C(F)(F)F (stereo not drawn) [Compound 3a, 5-(2-benzimidazolylimino)-2-[(5-methyl-2-benzimidazolyl)imino]-3a,6a-bis(2-pyridyl)-1,2,3,3a,4,5,6,6a-octahydroimidazo[4,5-d]imidazole bis(trifluoroacetate) salt]

effect of EDTA on luciferase activity (G-CSF receptor; EDTA at both 1.2 and 5 millimolar): little effect
B1: recombinant G-CSF: the natural ligand (i.e. G-CSF or recombinant G-CSF) (protein, UniProt P09919 31-207, looked up)
Granulocyte …: TPLGPASSLPQSFLLKCLEQVRKIQGDGAALQEKLVSECATYKLCHPEELVLLGHSLGIPWAPLSSCPSQALQLAGCLSQLHSGLFLYQGLLQALEGISPELGPTLDTLQLDVADFATTIWQQMEELGMAPALQPTQGAMPAFASAFQRRAGGVLVASHLQSFLEVSYRVLRHLAQP
